As a reminder, the IC50 is the concentration needed to halve the response being measured. Broadly, the Ki is a measure of affinity in units of concentration, obtained from inhibition or displacement.

For assay [1], the target named is Matrix metalloproteinase-9 (Homo sapiens, UniProt P14780). The assay is classed as cell-based.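 Note: inhibition of isolated MMP-9 enzyme activity toward a synthetic peptide substrate, from the DrugMatrix protease screening panel; in other assays of this panel Not Active means under 50% inhibition at 10 µM.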
Sequence of Matrix metalloproteinase-9 (P14780 whole entry): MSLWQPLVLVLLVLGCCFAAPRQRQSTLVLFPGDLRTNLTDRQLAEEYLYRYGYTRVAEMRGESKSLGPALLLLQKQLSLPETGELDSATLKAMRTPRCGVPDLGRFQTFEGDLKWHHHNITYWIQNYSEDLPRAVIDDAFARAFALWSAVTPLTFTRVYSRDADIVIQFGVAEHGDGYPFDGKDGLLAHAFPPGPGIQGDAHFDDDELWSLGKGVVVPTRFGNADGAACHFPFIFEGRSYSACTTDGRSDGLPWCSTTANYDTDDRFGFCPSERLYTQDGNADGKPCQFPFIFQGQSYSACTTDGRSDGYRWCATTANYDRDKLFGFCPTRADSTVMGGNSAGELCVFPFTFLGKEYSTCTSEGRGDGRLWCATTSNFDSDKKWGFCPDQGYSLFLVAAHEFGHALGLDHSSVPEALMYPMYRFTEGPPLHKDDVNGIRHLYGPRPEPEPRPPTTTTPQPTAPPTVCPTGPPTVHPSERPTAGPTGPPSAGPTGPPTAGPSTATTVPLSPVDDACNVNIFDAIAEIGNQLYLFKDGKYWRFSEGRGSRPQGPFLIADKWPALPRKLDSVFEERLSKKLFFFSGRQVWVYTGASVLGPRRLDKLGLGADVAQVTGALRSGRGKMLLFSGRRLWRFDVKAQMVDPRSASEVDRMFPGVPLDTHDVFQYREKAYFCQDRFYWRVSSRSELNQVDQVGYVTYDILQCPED
For assay [2], the target named is Sigma non-opioid intracellular receptor 1 (Homo sapiens, UniProt Q99720). The assay can be described thus: DRUGMATRIX: Sigma1 radioligand binding (ligand: [3H] Haloperidol). Format: cell membranes, Jurkat, Membrane. To be noted: jurkat; Not Active = under 50% inhibition at 10 µM.
Sequence of Sigma non-opioid intracellular receptor 1 (Q99720 whole entry): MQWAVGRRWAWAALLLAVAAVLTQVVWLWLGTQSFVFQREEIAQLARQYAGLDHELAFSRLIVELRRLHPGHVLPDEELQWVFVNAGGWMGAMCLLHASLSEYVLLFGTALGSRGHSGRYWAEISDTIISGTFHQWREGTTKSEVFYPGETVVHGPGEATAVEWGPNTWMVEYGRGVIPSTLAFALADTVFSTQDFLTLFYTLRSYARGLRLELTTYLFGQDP
The target of assay [3] is Delta-type opioid receptor (Homo sapiens, UniProt P41143). Format: cell membranes, HEK293, Membrane. To be noted: hek293. Note: in other assays of this panel Not Active means under 50% inhibition at 10 µM.
Another assay concerns the target T1, Progesterone receptor (Bos taurus, UniProt Q690N0).
T1 sequence (Q690N0 whole entry): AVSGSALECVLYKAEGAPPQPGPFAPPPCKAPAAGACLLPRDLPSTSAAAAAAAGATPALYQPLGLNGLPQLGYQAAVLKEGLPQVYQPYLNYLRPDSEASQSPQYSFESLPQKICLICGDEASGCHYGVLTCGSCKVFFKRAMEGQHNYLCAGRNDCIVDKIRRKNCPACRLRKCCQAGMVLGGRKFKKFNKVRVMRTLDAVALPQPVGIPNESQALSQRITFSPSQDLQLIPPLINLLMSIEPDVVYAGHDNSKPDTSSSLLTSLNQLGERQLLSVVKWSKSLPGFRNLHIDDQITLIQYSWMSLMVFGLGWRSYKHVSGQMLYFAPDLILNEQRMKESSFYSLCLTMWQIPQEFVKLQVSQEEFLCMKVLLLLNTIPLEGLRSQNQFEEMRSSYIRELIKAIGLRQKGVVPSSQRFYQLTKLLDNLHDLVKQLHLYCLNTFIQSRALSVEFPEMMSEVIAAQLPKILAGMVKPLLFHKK
Briefly: DRUGMATRIX: Progesterone radioligand binding (ligand: [3H] R-5020). Format: tissue-based, Uterus. To be noted: Not Active = under 50% inhibition at 10 µM.

Assay [4] has as its target Mitogen-activated protein kinase 14 (Homo sapiens, UniProt Q16539). Also on record: species or system Escherichia coli.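 Note: inhibition of p38alpha enzyme activity in a biochemical kinase assay, with myelin basic protein serving as substrate; in other assays of this panel Not Active means under 50% inhibition at 10 µM.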
The nature of assay [5]: DRUGMATRIX: Serotonin (5-Hydroxytryptamine) 5-HT3 radioligand binding (ligand: [3H] GR-65630). The assay is classed as cell membranes, Membrane. To be noted: hek293, Not Active = under 50% inhibition at 10 µM.
The target in assay [6] is Protein kinase C alpha type (Homo sapiens, UniProt P17252). Format: cell-based. As to conditions: sf9.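 Note: inhibition of PKCalpha kinase activity measured in an enzyme assay with histone as the phosphorylation substrate; in other assays of this panel Not Active means under 50% inhibition at 10 µM.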
Assay [7] addresses T2, Muscarinic acetylcholine receptor M4 (Homo sapiens, UniProt P08173).
T2 sequence (P08173 whole entry): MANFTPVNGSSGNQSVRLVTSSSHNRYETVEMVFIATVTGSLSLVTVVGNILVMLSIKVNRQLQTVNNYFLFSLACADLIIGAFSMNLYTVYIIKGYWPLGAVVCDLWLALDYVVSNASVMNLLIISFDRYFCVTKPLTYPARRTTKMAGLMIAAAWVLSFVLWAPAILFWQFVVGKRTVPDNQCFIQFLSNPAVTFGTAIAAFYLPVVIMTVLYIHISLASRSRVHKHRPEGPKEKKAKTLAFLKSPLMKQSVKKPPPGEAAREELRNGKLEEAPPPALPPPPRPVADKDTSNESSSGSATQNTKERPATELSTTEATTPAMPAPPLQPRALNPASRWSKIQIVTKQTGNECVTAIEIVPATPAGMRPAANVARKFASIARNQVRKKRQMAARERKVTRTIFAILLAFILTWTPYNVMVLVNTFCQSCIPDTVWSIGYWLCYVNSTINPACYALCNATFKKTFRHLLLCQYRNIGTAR
The assay is classed as cell membranes, CHO-K1, Membrane. As to conditions: cho-k1.

Assay [8] concerns the target Vascular endothelial growth factor receptor 1 (Homo sapiens, UniProt P17948). Format: cell-based. As to conditions: huvec. Note: in other assays of this panel Not Active means under 50% inhibition at 10 µM.
Assay [9] concerns the target T3, Alpha-1A adrenergic receptor (Rattus norvegicus, UniProt P43140).
T3 sequence (P43140 whole entry): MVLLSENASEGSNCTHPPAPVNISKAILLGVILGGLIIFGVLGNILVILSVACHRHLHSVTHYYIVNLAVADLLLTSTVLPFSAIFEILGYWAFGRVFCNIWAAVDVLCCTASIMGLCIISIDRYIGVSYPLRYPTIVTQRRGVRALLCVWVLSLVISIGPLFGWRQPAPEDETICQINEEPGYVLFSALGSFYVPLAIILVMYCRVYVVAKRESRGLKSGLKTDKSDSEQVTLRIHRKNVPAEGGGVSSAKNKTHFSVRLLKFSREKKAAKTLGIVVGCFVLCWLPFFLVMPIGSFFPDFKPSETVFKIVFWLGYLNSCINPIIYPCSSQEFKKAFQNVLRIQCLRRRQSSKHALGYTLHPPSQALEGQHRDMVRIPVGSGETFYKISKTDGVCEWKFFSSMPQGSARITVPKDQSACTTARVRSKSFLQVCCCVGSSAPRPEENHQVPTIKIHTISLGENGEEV
Briefly: DRUGMATRIX: Alpha-1A adrenergic receptor radioligand binding (ligand: prazosin). Format: cell membranes, Wistar, Submaxillary gland, Membrane. As to conditions: Not Active = under 50% inhibition at 10 µM.

Another assay addresses T4, B2 bradykinin receptor (Homo sapiens, UniProt P30411).
T4 sequence (P30411 whole entry): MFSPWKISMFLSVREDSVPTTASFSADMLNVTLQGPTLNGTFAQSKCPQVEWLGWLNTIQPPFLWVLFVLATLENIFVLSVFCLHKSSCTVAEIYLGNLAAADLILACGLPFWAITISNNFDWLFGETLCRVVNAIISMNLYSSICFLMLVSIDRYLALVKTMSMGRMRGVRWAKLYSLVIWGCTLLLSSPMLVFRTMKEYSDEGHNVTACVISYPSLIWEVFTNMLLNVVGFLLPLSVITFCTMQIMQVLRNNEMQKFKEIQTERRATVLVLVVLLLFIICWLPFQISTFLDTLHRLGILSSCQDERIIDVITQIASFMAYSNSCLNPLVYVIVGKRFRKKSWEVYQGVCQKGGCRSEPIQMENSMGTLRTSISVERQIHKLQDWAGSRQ
The assay is classed as cell membranes, Membrane. To be noted: chem-1.

The target of a further assay is Nitric oxide synthase 1 (Rattus norvegicus, UniProt P29476). Format: tissue-based, Cerebellum. Note: in other assays of this panel Not Active means under 50% inhibition at 10 µM.
Sequence of Nitric oxide synthase 1 (P29476 whole entry): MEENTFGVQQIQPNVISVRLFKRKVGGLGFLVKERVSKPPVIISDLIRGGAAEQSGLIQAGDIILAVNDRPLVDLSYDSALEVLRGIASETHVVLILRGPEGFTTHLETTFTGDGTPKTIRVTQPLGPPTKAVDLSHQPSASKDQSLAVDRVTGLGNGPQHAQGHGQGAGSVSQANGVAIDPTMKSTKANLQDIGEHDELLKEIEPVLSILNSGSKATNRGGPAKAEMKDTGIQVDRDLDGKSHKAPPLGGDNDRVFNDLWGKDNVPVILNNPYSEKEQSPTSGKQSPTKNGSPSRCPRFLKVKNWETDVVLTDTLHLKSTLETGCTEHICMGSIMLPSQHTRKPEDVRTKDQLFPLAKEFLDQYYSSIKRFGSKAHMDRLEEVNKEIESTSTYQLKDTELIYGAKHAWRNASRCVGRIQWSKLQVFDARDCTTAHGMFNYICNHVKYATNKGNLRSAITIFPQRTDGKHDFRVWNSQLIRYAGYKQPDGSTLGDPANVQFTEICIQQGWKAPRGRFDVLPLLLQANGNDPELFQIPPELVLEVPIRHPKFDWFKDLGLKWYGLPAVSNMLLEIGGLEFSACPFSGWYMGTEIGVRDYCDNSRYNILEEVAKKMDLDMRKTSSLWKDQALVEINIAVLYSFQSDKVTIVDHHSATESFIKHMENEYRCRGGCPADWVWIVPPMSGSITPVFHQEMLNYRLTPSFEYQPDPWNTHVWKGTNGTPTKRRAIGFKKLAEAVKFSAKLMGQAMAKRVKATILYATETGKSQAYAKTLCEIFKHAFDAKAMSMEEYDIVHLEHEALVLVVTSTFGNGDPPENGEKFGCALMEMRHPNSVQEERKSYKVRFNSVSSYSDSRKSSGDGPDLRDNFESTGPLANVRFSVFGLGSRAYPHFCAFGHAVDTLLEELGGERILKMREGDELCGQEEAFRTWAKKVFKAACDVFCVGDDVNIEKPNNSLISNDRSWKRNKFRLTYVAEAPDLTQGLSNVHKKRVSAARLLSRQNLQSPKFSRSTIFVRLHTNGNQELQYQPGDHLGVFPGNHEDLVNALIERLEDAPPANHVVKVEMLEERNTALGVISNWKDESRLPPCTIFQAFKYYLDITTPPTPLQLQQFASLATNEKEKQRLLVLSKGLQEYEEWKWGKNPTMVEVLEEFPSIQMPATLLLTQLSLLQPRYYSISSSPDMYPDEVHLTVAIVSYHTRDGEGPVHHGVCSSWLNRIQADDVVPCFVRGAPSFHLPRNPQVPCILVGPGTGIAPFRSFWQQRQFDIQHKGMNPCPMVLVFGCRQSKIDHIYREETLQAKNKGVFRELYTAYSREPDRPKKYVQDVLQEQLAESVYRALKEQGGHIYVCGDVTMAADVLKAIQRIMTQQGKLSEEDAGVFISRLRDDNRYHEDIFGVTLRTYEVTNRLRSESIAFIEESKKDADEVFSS

Sequence of Vascular endothelial growth factor receptor 1 (P17948 whole entry): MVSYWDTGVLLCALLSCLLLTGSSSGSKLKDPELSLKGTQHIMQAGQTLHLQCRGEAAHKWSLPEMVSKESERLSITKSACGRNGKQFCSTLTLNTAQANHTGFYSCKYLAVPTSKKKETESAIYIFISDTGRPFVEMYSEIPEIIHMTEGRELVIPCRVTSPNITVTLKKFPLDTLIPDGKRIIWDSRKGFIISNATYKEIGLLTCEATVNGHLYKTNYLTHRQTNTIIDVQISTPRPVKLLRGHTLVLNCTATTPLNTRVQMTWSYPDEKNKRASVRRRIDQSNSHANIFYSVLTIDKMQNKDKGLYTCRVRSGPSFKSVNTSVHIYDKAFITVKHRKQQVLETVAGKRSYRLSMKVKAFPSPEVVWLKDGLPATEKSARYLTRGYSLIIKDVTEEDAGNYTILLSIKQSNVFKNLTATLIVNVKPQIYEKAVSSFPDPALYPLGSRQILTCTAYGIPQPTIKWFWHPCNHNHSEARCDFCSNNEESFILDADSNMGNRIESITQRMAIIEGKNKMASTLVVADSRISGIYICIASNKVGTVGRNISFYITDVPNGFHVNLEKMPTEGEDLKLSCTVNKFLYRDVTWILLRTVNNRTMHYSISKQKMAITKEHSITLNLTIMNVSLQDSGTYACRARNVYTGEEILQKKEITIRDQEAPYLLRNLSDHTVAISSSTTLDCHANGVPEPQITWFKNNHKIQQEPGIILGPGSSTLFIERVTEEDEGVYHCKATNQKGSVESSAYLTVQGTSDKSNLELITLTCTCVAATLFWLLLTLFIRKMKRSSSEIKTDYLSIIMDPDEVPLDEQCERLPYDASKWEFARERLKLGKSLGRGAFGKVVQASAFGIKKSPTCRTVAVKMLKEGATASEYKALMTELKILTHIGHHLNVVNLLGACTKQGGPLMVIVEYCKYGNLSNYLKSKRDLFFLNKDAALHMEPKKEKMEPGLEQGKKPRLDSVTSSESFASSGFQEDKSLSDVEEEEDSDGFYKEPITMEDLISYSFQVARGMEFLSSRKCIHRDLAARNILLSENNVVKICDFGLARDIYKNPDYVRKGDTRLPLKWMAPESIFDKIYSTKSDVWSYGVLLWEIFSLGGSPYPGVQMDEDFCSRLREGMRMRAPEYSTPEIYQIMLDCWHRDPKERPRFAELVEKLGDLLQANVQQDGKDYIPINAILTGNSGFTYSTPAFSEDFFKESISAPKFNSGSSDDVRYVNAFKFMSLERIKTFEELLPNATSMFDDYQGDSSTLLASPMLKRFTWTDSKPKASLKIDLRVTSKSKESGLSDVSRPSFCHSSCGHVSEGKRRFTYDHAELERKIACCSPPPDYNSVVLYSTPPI
Sequence of Mitogen-activated protein kinase 14 (Q16539 whole entry): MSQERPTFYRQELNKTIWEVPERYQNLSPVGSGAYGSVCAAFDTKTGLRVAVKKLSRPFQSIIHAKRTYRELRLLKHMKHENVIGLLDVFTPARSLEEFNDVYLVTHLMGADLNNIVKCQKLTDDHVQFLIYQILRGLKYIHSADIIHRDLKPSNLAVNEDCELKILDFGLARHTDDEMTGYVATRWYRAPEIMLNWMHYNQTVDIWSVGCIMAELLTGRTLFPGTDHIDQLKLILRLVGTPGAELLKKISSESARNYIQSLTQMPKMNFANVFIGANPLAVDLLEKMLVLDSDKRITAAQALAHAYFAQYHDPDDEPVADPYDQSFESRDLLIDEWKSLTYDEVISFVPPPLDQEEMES

As to `CCc1cccc2c3c([nH]c12)C(CC)(CC(=O)O)OCC3` (stereo not given) [ETODOLAC], the IC50 entry (in assay [1]; in [2]; in assay [3]; on Progesterone receptor; in [4]; in [5]) was “Not Active” throughout. The IC50 result (in assay [6]; in assay [7]; in assay [8]; in assay [9]; against B2 bradykinin receptor; on Nitric oxide synthase 1) was “Not Active” each time. Besides, the Ki result in assay [5] is “Not Active”.
With CARBOPLATIN, the IC50 result (in [1]; in assay [2]; in assay [3]; on Progesterone receptor; in assay [4]; in assay [5]) was “Not Active” each time. In addition, the IC50 entry (in [6]; in [7]; in [8]; in [9]; against B2 bradykinin receptor; against Nitric oxide synthase 1) was “Not Active” in each case. For the same molecule, the Ki entry (in assay [1]; in assay [2]; in assay [3]; at Progesterone receptor; in assay [4]; in [5]) was “Not Active” throughout. For the same molecule, the Ki entry (in assay [6]; in assay [7]; in [8]; in assay [9]; at B2 bradykinin receptor; on Nitric oxide synthase 1) was “Not Active” throughout.
For the molecule `Cn1cnc([N+](=O)[O-])c1Sc1ncnc2nc[nH]c12` [AZATHIOPRINE], the IC50 result (in assay [1]; in assay [2]; in assay [3]; on Progesterone receptor; in assay [4]; in assay [5]) was “Not Active” each time. The IC50 entry (in assay [6]; in assay [7]; in [8]; in assay [9]; against B2 bradykinin receptor; at Nitric oxide synthase 1) was “Not Active” each time. The Ki entry in assay [5] is recorded as “Not Active”.
For `CC(/C=C1\SC(=S)N(CC(=O)O)C1=O)=C\c1ccccc1`, the IC50 entry (in assay [1]; in [2]; in assay [3]; on Progesterone receptor; in [4]; in assay [5]) was “Not Active” in each case. Besides, the IC50 entry (in assay [6]; in [7]; in assay [8]; in assay [9]; against B2 bradykinin receptor; against Nitric oxide synthase 1) was “Not Active” in each case. Besides, the Ki result in assay [5] is given as “Not Active”.
Regarding `N=C(N)NCCCCNC(=N)N.O=S(=O)(O)O` [ARCAINE SULFATE], the IC50 entry (in assay [1]; in [2]; in [3]; on Progesterone receptor; in assay [4]; in assay [5]) was “Not Active” each time. Also, the IC50 entry (in assay [6]; in assay [7]; in [8]; in assay [9]; against B2 bradykinin receptor; against Nitric oxide synthase 1) was “Not Active” in each case. In [5], the Ki entry is on record as “Not Active”.
Turning to `CC1(C)[C@@H](O[C@H]2O[C@H](C(=O)O)[C@@H](O)[C@H](O)[C@H]2O[C@@H]2O[C@H](C(=O)O)[C@@H](O)[C@H](O)[C@H]2O)CC[C@]2(C)[C@H]3C(=O)C=C4[C@@H]5C[C@@](C)(C(=O)O)CC[C@]5(C)CC[C@@]4(C)[C@]3(C)CC[C@@H]12` [GLYCYRRHIZIN], the IC50 result (in [1]; in assay [2]; in assay [3]; on Progesterone receptor; in assay [4]; in assay [5]) was “Not Active” each time. The IC50 entry (in [6]; in assay [7]; in assay [8]; in assay [9]; against B2 bradykinin receptor; at Nitric oxide synthase 1) was “Not Active” in each case. In assay [5], the Ki result is on record as “Not Active”.
On to `NCC[C@H](O)C(=O)N[C@@H]1C[C@H](N)[C@@H](O[C@H]2O[C@H](CN)[C@@H](O)[C@H](O)[C@H]2O)[C@H](O)[C@H]1O[C@H]1O[C@H](CO)[C@@H](O)[C@H](N)[C@H]1O` [AMIKACIN], for which the IC50 result (in [1]; in assay [2]; in assay [3]; on Progesterone receptor; in assay [4]; in assay [5]) was “Not Active” in each case. Besides, the IC50 entry (in assay [6]; in [7]; in assay [8]; in [9]; against B2 bradykinin receptor; against Nitric oxide synthase 1) was “Not Active” throughout. Further, in [5], the Ki entry is listed as “Not Active”.
With `Cc1[nH]cnc1CN1CCc2c(c3ccccc3n2C)C1=O` [ALOSETRON], the IC50 result in [1] was “Not Active”; in assay [2], “Not Active”; in [3], “Not Active”; at Progesterone receptor, “Not Active”; in assay [4] it was “Not Active”; in [5] (read-out: IC50), 1.16 nM. The IC50 entry (in assay [6]; in assay [7]; in assay [8]; in assay [9]; against B2 bradykinin receptor; against Nitric oxide synthase 1) was “Not Active” throughout. The Ki in assay [5] (read-out: Ki) is 0.262 nM.
